Test results taken from patent publication US9969758B2, “Antimicrobial compounds” (BIOMERIEUX, priority 2014, dated 2018).
Converted amounts (≈) assume the structure as drawn.

How the values were obtained:
K. pneumoniae (87) = assay: MIC by agar dilution; assay type: cell-based, Klebsiella pneumoniae; settings: Klebsiella pneumoniae
From the text: (§1) Bacterial isolates. […] These included Citrobacter freundii (n=5), other species of Citrobacter (n=4), Enterobacter aerogenes (n=1), Enterobacter cloacae (n=27), Escherichia coli (n=53), Klebsiella oxytoca (n=5), Klebsiella pneumoniae (n=87), Kluyvera spp (n=1), Proteus mirabilis (n=8), Providencia rettgeri (n=2), Salmonella spp (n=3), and Serratia marcescens (n=1). Among these 197 isolates, there were 128 (65%) carbapenemase producers, including; 87 with NDM-1, 9 with IMP, 11 with KPC, 14 with OXA-48 and 7 with VIM. The majority of the carbapenemase producers jointly produced broad-spectrum β-lactamases (BSBL) or cephalosporinases (AmpC β-lactamases), but the latter are not documented for the sake of clarity.
(§2) Determining the minimum inhibitory concentrations (MIC). All the MICs were determined using an agar dilution method. This required use of a medium without a defined antagonist (peptone-free), prepared as described previously with the inclusion of 2% horse blood lysed with saponin, 25.0 μg/mL of NAD and 25.0 μg/mL of hemin [17]. The compounds tested were dissolved in sterile deionised water and incorporated into the agar medium in a concentration range of 0.0031 to 8.0 μg/mL (0.016 to 32 μg/mL for gram-positive bacteria). All the isolates were prepared at a density equivalent to 0.5 McFarland units in sterile deionised water using a densitometer (approximately 1.5×10^8 CFU/mL), and then diluted to 1 for 15. An aliquot of 1 μL of each diluted suspension was then placed onto plates with a multispot inoculator to give the final recommended inoculation of 10 000 CFU/spot. The MICs of fosfomycin were determined by the same method, except that the IsoSensitest medium (Oxoid, Basingstoke, United Kingdom) was used, plus 25.0 μg/mL of glucose-6-phosphate (Sigma, Poole, United Kingdom) and an extended range of fosfomycin concentrations. All the dishes (including the antimicrobial-free controls) were incubated for 22 hours at 37° C. All the tests were performed on at least two independent replicates in order to examine the reproducibility.

S. marcescens (n=1) = assay: MIC by agar dilution; assay type: cell-based, Serratia marcescens
From the text: as §1
(§3) Determining the minimum inhibitory concentrations (MIC). All the MICs were determined using an agar dilution method. This required use of a medium without a defined antagonist (peptone-free), prepared as described previously with the inclusion of 2% horse blood lysed with saponin, 25.0 μg/mL of NAD and 25.0 μg/mL of hemin [17]. […] The MICs of fosfomycin were determined by the same method, except that the IsoSensitest medium (Oxoid, Basingstoke, United Kingdom) was used, plus 25.0 μg/mL of glucose-6-phosphate (Sigma, Poole, United Kingdom) and an extended range of fosfomycin concentrations. […]

E. faecalis (11) = assay: MIC by agar dilution; assay type: cell-based, Enterococcus faecalis; settings: Enterococcus faecalis
From the text: (§4) A collection of 50 isolates of Staphylococci aureus included 36 strains of methicillin-resistant S. aureus (MRSA) frequently encountered in Europe, including strains isolated in Belgium, Finland, France, Germany and the United Kingdom. Another strain of MRSA, NCTC 11939, was included as a control, as well as a methicillin-sensitive control (NCTC 6571). Twelve other isolates of methicillin-sensitive Staphylococcus aureus (MSSA) recently collected from blood cultures were also included. Finally, 50 isolates of enterococci included two control strains (Enterococcus faecalis NCTC 755 and Enterococcus faecium NCTC 7171) and 48 isolates originating from clinical samples obtained from at least three different hospitals. The clinical isolates included E. faecalis (n=10), E. faecium (n=33), Enterococcus casseliflavus (n=3), Enterococcus gallinarum (n=2).
as §2

[1] = tested on: methicillin-resistant Staphylococcus aureus; assay: MIC by agar dilution; assay type: cell-based
From the text: as §4, §2

[2] = tested on: glycopeptide-resistant enterococci; assay: MIC by agar dilution; assay type: cell-based
From the text: as §4, §2

[3] = tested on: methicillin-sensitive Staphylococcus aureus; assay: MIC by agar dilution; assay type: cell-based
From the text: as §4, §2

All Enterococci (50) = assay: MIC by agar dilution; assay type: cell-based
From the text: as §4, §2

All S. aureus (50) = assay: MIC by agar dilution; assay type: cell-based, Staphylococcus aureus
From the text: as §4, §2

E. aerogenes (n=1) = assay: MIC by agar dilution; assay type: cell-based, Enterobacter aerogenes
From the text: as §1, §3

E. cloacae (27) = assay: MIC by agar dilution; assay type: cell-based, Enterobacter cloacae
From the text: as §1, §2

Escherichia coli = assay: Growth and colour on Salmonella detection medium; assay type: cell-based; settings: added to the chromID Salmonella medium (0.002 g/L)
From the text: The present Example 3 aims to compare the detection specificity of a reaction medium according to the invention, intended to detect bacteria of the genus Salmonella, namely the medium “modified chromlD Salmonella” against a reference detection medium for the same bacteria, namely the medium “chromlD Salmonella”.
The respective compositions of the reaction medium according to the present invention and of the reference reaction medium are presented below, within Table 2.

Salmonella isolates = assay: MIC by agar dilution; assay type: cell-based, Salmonella spp; settings: Salmonella, read-out: MICs
From the text: as §1, §3

Kluyvera sp. (n=1) = assay: MIC by agar dilution; assay type: cell-based, Kluyvera spp
From the text: as §1, §3

AmpC (22) = assay: MIC by agar dilution; assay type: cell-based, Enterobacteriaceae
From the text: as §1, §2

E. faecium (34) = assay: MIC by agar dilution; assay type: cell-based, Enterococcus faecium
From the text: as §4, §2

E. coli (53) = assay: MIC by agar dilution; assay type: cell-based, Escherichia coli
From the text: as §1, §2

K. oxytoca = assay: MIC by agar dilution; assay type: cell-based, Klebsiella oxytoca; settings: five isolates of K. oxytoca
From the text: as §1, §3

[4] = tested on: carbapenemase-producing Enterobacteriaceae; assay: MIC by agar dilution; assay type: cell-based
From the text: as §1, §2

Citrobacter (n=9) = assay: MIC by agar dilution; assay type: cell-based
From the text: as §1, §2

Enterobacteriaceae (197) = assay: MIC by agar dilution; assay type: cell-based
From the text: as §1, §2

[5] = tested on: Enterobacteriaceae with a broad-spectrum β-lactamase; assay: MIC by agar dilution; assay type: cell-based
From the text: as §1, §2

[6] = read-out: Modal MIC (most frequent MIC)

Work on `C[C@H](NC(=O)[C@@H](N)CCl)P(=O)(O)O` [β-Cl-Alafosfalin, β-chloro-L-alanyl-L-1-aminoethylphosphonic acid] yielded an MIC50 (K. pneumoniae (87)) of 1 µg/mL (≈ 4.34 µM), an MIC90 (K. pneumoniae (87)) of 8 µg/mL (≈ 34.7 µM) and an MIC (K. pneumoniae (87); [6]) of 1 µg/mL (≈ 4.34 µM). The percent of isolates inhibited at 8 µg/mL (K. pneumoniae (87); read-out: isolates inhibited) was 93%, the “concentration to which all the isolates were sensitive” value (S. marcescens (n=1)) was no more than 2 µg/mL and the MIC50 (E. faecalis (11)) was 8 µg/mL (≈ 34.7 µM). The MIC90 (E. faecalis (11)) was 16 µg/mL (≈ 69.4 µM), the MIC (E. faecalis (11); [6]) was 8 µg/mL (≈ 34.7 µM) and the “MIC Range” value ([1]; MRSA (37)) was 0.125 to 2 µg/mL. For the same compound, the “concentration by which all the isolates were inhibited” value ([1]; MRSA isolates) was 2.0 µg/mL, the MIC50 ([1]; Staphylococcus aureus, MRSA) was 2 µg/mL (≈ 8.67 µM) and the MIC90 ([1]; Staphylococcus aureus, MRSA) was 2 µg/mL (≈ 8.67 µM). For the same compound, the MIC ([1]; Staphylococcus aureus, MRSA, read-out: Modal MIC (most frequent MIC)) was 2 µg/mL (≈ 8.67 µM), the MIC50 [2] was 8 µg/mL (≈ 34.7 µM) and the MIC90 [2] was 16 µg/mL (≈ 69.4 µM). For the same compound, the MIC [2, 6] was 4 µg/mL (≈ 17.3 µM), the “MIC Range” value ([3]; MSSA (13)) was 0.5 to 4 µg/mL and the MIC50 ([3]; Staphylococcus aureus, MSSA) was 1 µg/mL (≈ 4.34 µM). It also gave an MIC90 ([3]; Staphylococcus aureus, MSSA) of 2 µg/mL (≈ 8.67 µM), an MIC ([3]; Staphylococcus aureus, MSSA, read-out: Modal MIC (most frequent MIC)) of 1 µg/mL (≈ 4.34 µM) and an MIC50 (All Enterococci (50)) of 8 µg/mL (≈ 34.7 µM). For the same compound, the MIC90 (All Enterococci (50)) was 16 µg/mL (≈ 69.4 µM), the MIC (All Enterococci (50); [6]) was 8 µg/mL (≈ 34.7 µM) and the “MIC Range” value (All S. aureus (50); All S. aureus (50)) was 0.125 to 4 µg/mL. For the same compound, the MIC50 (All S. aureus (50); Staphylococcus aureus) was 1 µg/mL (≈ 4.34 µM), the MIC90 (All S. aureus (50); Staphylococcus aureus) was 2 µg/mL (≈ 8.67 µM) and the MIC (All S. aureus (50); Staphylococcus aureus, read-out: Modal MIC (most frequent MIC)) was 2 µg/mL (≈ 8.67 µM). For the same compound, the “concentration to which all the isolates were sensitive” value (E. aerogenes (n=1)) was no more than 2 µg/mL, the “MIC Range” value (E. cloacae (27); E. cloacae (27)) was 0.063 to 1 µg/mL and the “concentration by which all the isolates were inhibited” value (E. cloacae (27); E. cloacae isolates (n=27)) was 1 µg/mL. The MIC50 (E. cloacae (27); Enterobacter cloacae) was 0.5 µg/mL (≈ 2.17 µM), the MIC90 (E. cloacae (27); Enterobacter cloacae) was 0.5 µg/mL (≈ 2.17 µM) and the MIC (E. cloacae (27); Enterobacter cloacae, read-out: Modal MIC (most frequent MIC)) was 0.5 µg/mL (≈ 2.17 µM). For the same compound, the “effect on the osidase activities of the strains of Escherichia coli” value (Escherichia coli) was “selectively inhibit”, the MIC (Salmonella isolates) was 2 to 4 µg/mL (≈ 8.67 to 17.3 µM) and the “concentration to which all the isolates were sensitive” value (Kluyvera sp. (n=1)) was no more than 2 µg/mL. It also gave an MIC50 (AmpC (22)) of 2 µg/mL (≈ 8.67 µM), an MIC90 (AmpC (22)) greater than 8 µg/mL and an MIC (AmpC (22); [6]) greater than 8 µg/mL. For the same compound, the “MIC Range” value (E. faecium (34); E. faecium (34)) was 2 to 32 µg/mL, the MIC50 (E. faecium (34); Enterococcus faecium) was 4 µg/mL (≈ 17.3 µM) and the MIC90 (E. faecium (34); Enterococcus faecium) was 8 µg/mL (≈ 34.7 µM). For the same compound, the MIC (E. faecium (34); Enterococcus faecium, read-out: Modal MIC (most frequent MIC)) was 4 µg/mL (≈ 17.3 µM), the “concentration by which growth of all the isolates was inhibited” value (E. coli (53); 53 isolates of E. coli) was 0.5 µg/mL and the “activity relative to that of alafosfalin” value (E. coli (53); E. coli) was “at least twice”. The “activity relative to that of fosfomycin” value (E. coli (53); E. coli) was “at least eight”, the “MIC Range” value (E. coli (53); E. coli (53)) was ≤0.031-0.5 ^ μg/mL and the MIC50 (E. coli (53); Escherichia coli) was 0.063 µg/mL (≈ 0.273 µM). The MIC90 (E. coli (53); Escherichia coli) was 0.125 µg/mL (≈ 0.542 µM), the MIC (E. coli (53); Escherichia coli, read-out: Modal MIC (most frequent MIC)) was 0.063 µg/mL (≈ 0.273 µM) and the “concentration by which all isolates were inhibited” value (K. oxytoca) was no more than 2 µg/mL. The MIC50 [4] was 0.5 µg/mL (≈ 2.17 µM), the MIC90 [4] was 2 µg/mL (≈ 8.67 µM) and the MIC [4, 6] was 1 µg/mL (≈ 4.34 µM). The “concentration to which all the isolates were sensitive” value (Citrobacter (n=9)) was no more than 2 µg/mL, the MIC50 (Enterobacteriaceae (197)) was 0.5 µg/mL (≈ 2.17 µM) and the MIC90 (Enterobacteriaceae (197)) was 8 µg/mL (≈ 34.7 µM). It also gave an MIC (Enterobacteriaceae (197); [6]) of 1 µg/mL (≈ 4.34 µM), an MIC50 [5] of 0.5 µg/mL (≈ 2.17 µM) and an MIC90 [5] greater than 8 µg/mL. For the same compound, the MIC [5, 6] was 0.063 µg/mL (≈ 0.273 µM).
